Publication PMC6274124, “Design, Synthesis and Biological Evaluation of Brain-Targeted Thiamine Disulfide Prodrugs of Ampakine Compound LCX001” (Molecules, 2016)

Legend:
[1] = tested on: respiratory depression induced by pain relieving opiates; parameters: method as in PMID 19907420; conditions: single oral dose of 1500 mg, without affecting the pain relieving effects; cited from earlier work
[2] = Metabolic stability in mice plasma extract at 37 °C; format: in vitro ADME; conditions: for half-life at 1.67 µg/mL: mouse
Experimental: (§1) To determine the plasma stability and brain stability of these prodrugs, we assayed the pharmacokinetics of the prepared compounds 7a–7f in mice plasma extract and brain homogenate at 37 °C. The pseudo-first order rate constants of disappearance (Ke) of the prodrugs and their half lives (t1/2) which were calculated by linear regression of Ln of peak area against time in minutes are listed in Table 1.
(§2) Blood was drawn from mice though the orbital sinus and was collected in a heparinized tube paved with heparin sodium. Samples were centrifuged at 10,000 rpm for 16 min to separate plasma which was diluted with four volumes of water. The brain was removed and homogenized. Samples were then placed on ice and used immediately. Ten μL acetonitrile solution (10 μg/mL) of the compound was added to 50 μL of plasma or brain homogenate and gently vortexed. Samples were incubated at 37 °C and aliquots were removed after 0, 5, 15, 30, 60 and 90 min, respectively. One hundred μL acetonitrile was added to each and vortexed. Samples were centrifuged for 10 min to remove proteins and the supernatants were analyzed by LC-MS/MS method as described.

[3] = Metabolic stability in mice brain homogenate at 37 °C; format: in vitro ADME; conditions: for half-life at 1.67 µg/mL: mouse, mouse brain homogenate
Experimental: as §1, §2

[4] = Pharmacokinetics of LCX001 in plasma after i.v. administration; format: in vivo, Kunming mice; conditions: mice
Experimental: The compounds were injected through the caudal vein of the mice with a single dose equivalent to 1 mg/kg body weight of LCX001, and then blood was collected to analyze the concentration of LCX001 at different intervals by an LC-MS/MS method.
Mice were randomly divided into two groups, 27 in each group, for different sampling times and housed in one cage. Each animal was injected with 7e or LCX001 in 20% w/v hydroxypropyl-β-cyclodextrin and saline (0.45%) solution through the tail vein at a single dose equivalent to 1 mg/kg body weight of LCX001. At appropriate time intervals (5, 10, 30, 45, 60, 90, 120, 240 and 480 min), the animals were sacrificed and 1 mL blood samples withdrawn from the orbital sinus were collected in heparinized tubes. Fifty μL plasma was immediately separated by centrifugation, diluted with 200 μL methanol and stored at −20 °C until assay. Meanwhile, the brain was removed, weighed, homogenized and diluted with methanol to 1:5 (g/mL). The homogenates were also stored at −20 °C until assay. Internal standard (200 ng/mL) was added to the samples. The samples were vortexed for 3 min and then centrifuged at 9500 rpm for 15 min. […] Ten μL samples were analyzed by LC-MS/MS method as described.
The Cmax, AUC0-t, Tmax, MRT0-t and t1/2 were calculated by WinNonlin software (version 5.2.1, Pharsight, Mountain View, CA, USA). […]

[5] = tested on: opiate poisoned mice; assay: Model of opiate-induced respiratory depression (030418-induced), mortality of mice; format: in vivo, Kunming mice; conditions: for Death Rate: 10 min before 030418 15 mg/kg sc
Experimental: To investigate the effect of 7e on opiate-induced respiratory depression, we proceeded with a preliminary pharmacodynamic study in mice. […] Varying doses of prodrug 7e were administered 10 min before 030418 administration. The effect of prodrug 7e and LCX001 on opiate-induced respiratory depression was evaluted by the mortality of mice. […] Further pharmacodynamic studies are currently underway.
A total of 80 male Kunming mice weighing 20–22 g were used in this study. Animals were fed ad libitum with a commercial rodent feed and had free access to drinking water. All animals received human care, and the study protocols complied with the guidelines of the animal center of academy of military medical sciences. Throughout the experiments, the animals were handled according to the international ethical guidelines for the care of laboratory animals.
Respiratory depression in conscious mice was induced by hypodermic (15 mg/kg) administration of 030418. Ten min prior to 030418 administration, animals were randomly assigned to the experimental groups and received an intravenous injection of either saline solution (control), LCX001 (10 mg/kg), prodrug 7e (30 mg/kg, 10 mg/kg, 3 mg/kg, 1 mg/kg or 0.5 mg/kg) (Table 4).
During the experiment, the poisoning time, poisoning symptoms and death time were recorded. The death rate (death number/sample number) was used to evaluate the effect of 7e on opiate-induced respiratory depression.

[6] = Brain distribution of LCX001 after i.v. administration; format: in vivo, Kunming mice; conditions: mice; for AUC0-t: LCX001 in brain, single dose equivalent to 1 mg/kg LCX001, n = 3
Source text: To further evaluate the possibility of prodrug 7e being transported across the BBB, the brain distribution of prodrug 7e and LCX001 after injection were detected at fixed time intervals. […] The AUC0-t for prodrug 7e was enhanced to 2.23 times that of LCX001. The MRT0-t was increased to 3.29 times that of LCX001. […] This agreed well with the fact that the “lock-in” effect and sustained release effect of the prodrug 7e could effectively delay the clearance of LCX001.
Mice were randomly divided into two groups, 27 in each group, for different sampling times and housed in one cage. Each animal was injected with 7e or LCX001 in 20% w/v hydroxypropyl-β-cyclodextrin and saline (0.45%) solution through the tail vein at a single dose equivalent to 1 mg/kg body weight of LCX001. At appropriate time intervals (5, 10, 30, 45, 60, 90, 120, 240 and 480 min), the animals were sacrificed and 1 mL blood samples withdrawn from the orbital sinus were collected in heparinized tubes. Fifty μL plasma was immediately separated by centrifugation, diluted with 200 μL methanol and stored at −20 °C until assay. Meanwhile, the brain was removed, weighed, homogenized and diluted with methanol to 1:5 (g/mL). The homogenates were also stored at −20 °C until assay. Internal standard (200 ng/mL) was added to the samples. The samples were vortexed for 3 min and then centrifuged at 9500 rpm for 15 min. Fifty μL supernatants were withdrawn, then 50 μL of water was added to each aliquot and vortexed. Ten μL samples were analyzed by LC-MS/MS method as described.
The Cmax, AUC0-t, Tmax, MRT0-t and t1/2 were calculated by WinNonlin software (version 5.2.1, Pharsight, Mountain View, CA, USA). Statistical evaluation was performed using analysis of variance followed by t-test. A value of p < 0.05 was considered significant.

[7] = tested on: field excitatory postsynaptic potential (EPSP) in the rat dentate gyrus; parameters: method as in earlier work; conditions: cited from earlier work
[8] = tested on: damphetamine- stimulated locomotion; parameters: method as in earlier work; conditions: behavioral testing; cited from earlier work

O=C(c1ccc2nonc2c1)N1CCOCC1 [CX717]
Effect on opiate-induced respiratory depression [1]: positive effects

CCSS/C(CCOC(=O)CCCC(=O)O[C@H]1CC[C@H](N(C)C(=O)c2ccc3nonc3c2)CC1)=C(/C)N(C)C=O [Compound 7a, S-3-(Ethyldisulfanyl)-4-(N-methylformamido)pent-3-en-1-yl((1R,4R)-4-(N-methylbenzo[c][1,2,5]oxadiazole-5-carboxamido)cyclohexyl) glutarate]
melting point: 78.8 to 79.5 °C
Ke, pseudo-first order rate constant of disappearance [2]: 31.1 min^−1 (×10^−2)
half-life at 1.67 µg/mL [2]: 2.23 min
Ke, pseudo-first order rate constant of disappearance [3]: 19.9 min^−1 (×10^−2)
half-life at 1.67 µg/mL [3]: 3.48 min

CCCSS/C(CCOC(=O)CCCC(=O)O[C@H]1CC[C@H](N(C)C(=O)c2ccc3nonc3c2)CC1)=C(/C)N(C)C=O [Compound 7b, S-3-(Propyldisulfanyl)-4-(N-methylformamido)pent-3-en-1-yl((1R,4R)-4-(N-methylbenzo[c][1,2,5]oxadiazole-5-carboxamido)cyclohexyl) glutarate]
melting point: 78 to 79.3 °C
Ke, pseudo-first order rate constant of disappearance [2]: 7.06 min^−1 (×10^−2)
half-life at 1.67 µg/mL [2]: 9.82 min
Ke, pseudo-first order rate constant of disappearance [3]: 6.82 min^−1 (×10^−2)
half-life at 1.67 µg/mL [3]: 10.2 min

CCCCSS/C(CCOC(=O)CCCC(=O)O[C@H]1CC[C@H](N(C)C(=O)c2ccc3nonc3c2)CC1)=C(/C)N(C)C=O [Compound 7c, S-3-(Butyldisulfanyl)-4-(N-methylformamido)pent-3-en-1-yl((1R,4R)-4-(N-methylbenzo[c][1,2,5]oxadiazole-5-carboxamido)cyclohexyl) glutarate]
melting point: 67.6 to 68.4 °C
Ke, pseudo-first order rate constant of disappearance [2]: 6.77 min^−1 (×10^−2)
half-life at 1.67 µg/mL [2]: 10.2 min
Ke, pseudo-first order rate constant of disappearance [3]: 4.05 min^−1 (×10^−2)
half-life at 1.67 µg/mL [3]: 17.1 min

CCCCCSS/C(CCOC(=O)CCCC(=O)O[C@H]1CC[C@H](N(C)C(=O)c2ccc3nonc3c2)CC1)=C(/C)N(C)C=O [Compound 7d, S-3-(Amyldisulfanyl)-4-(N-methylformamido)pent-3-en-1-yl((1R,4R)-4-(N-methylbenzo[c][1,2,5]oxadiazole-5-carboxamido)cyclohexyl) glutarate]
melting point: 69.3 to 70.3 °C
Ke, pseudo-first order rate constant of disappearance [2]: 4.50 min^−1 (×10^−2)
half-life at 1.67 µg/mL [2]: 15.4 min
Ke, pseudo-first order rate constant of disappearance [3]: 6.34 min^−1 (×10^−2)
half-life at 1.67 µg/mL [3]: 10.9 min

C/C(=C(\CCOC(=O)CCCC(=O)O[C@H]1CC[C@H](N(C)C(=O)c2ccc3nonc3c2)CC1)SSCCC(C)C)N(C)C=O [Compound 7e, S-3-(Isoamyldisulfanyl)-4-(N-methylformamido)pent-3-en-1-yl((1R,4R)-4-(N-methylbenzo[c][1,2,5]oxadiazole-5-carboxamido)cyclohexyl) glutarate]
Ke, pseudo-first order rate constant of disappearance [2]: 4.34 min^−1 (×10^−2)
half-life at 1.67 µg/mL [2]: 16 min
MRT of LCX001 in plasma, times that of LCX001 [4]: 0.77 times
Required molar dose relative to LCX001 to achieve the same effect ([5]; 3 mg/kg 7e gave the same effect as 10 mg/kg LCX001 on reducing mortality): one eighth
Death Rate ([5]; iv 0.5 mg/kg): 50%
Death Rate ([5]; iv 1 mg/kg): 30%
Death Rate ([5]; iv 3 mg/kg): 20%
Death Rate ([5]; iv 10 mg/kg): 0%
Death Rate ([5]; iv 30 mg/kg): 0%
Ke, pseudo-first order rate constant of disappearance [3]: 3.69 min^−1 (×10^−2)
half-life at 1.67 µg/mL [3]: 18.8 min
AUC0-t [6]: 1125.49 ± 336.57 * h·ng/g
AUC0-t of LCX001 in brain, times that of LCX001 ([6]; brain): 2.23 times
MRT0-t of LCX001 in brain, times that of LCX001 ([6]; brain): 3.29 times

C/C(=C(\CCOC(=O)CCCC(=O)O[C@H]1CC[C@H](N(C)C(=O)c2ccc3nonc3c2)CC1)SSCc1ccccc1)N(C)C=O [Compound 7f, S-3-(Benzyldisulfanyl)-4-(N-methylformamido)pent-3-en-1-yl((1R,4R)-4-(N-methylbenzo[c][1,2,5]oxadiazole-5-carboxamido)cyclohexyl) glutarate]
melting point: 72.9 to 73.8 °C
Ke, pseudo-first order rate constant of disappearance [2]: 4.48 min^−1 (×10^−2)
half-life at 1.67 µg/mL [2]: 15.5 min
Ke, pseudo-first order rate constant of disappearance [3]: 5.78 min^−1 (×10^−2)
half-life at 1.67 µg/mL [3]: 12 min

CN(C(=O)c1ccc2nonc2c1)[C@H]1CC[C@H](O)CC1 [LCX001]
Increase in amplitude of the field EPSP [7]: 21%
Death Rate ([5]; iv 10 mg/kg): 20%
Inhibition of d-amphetamine-stimulated locomotion [8]: 100%
AUC0-t [6]: 504.32 ± 204.71 ng·h/g
